The target in one experiment is T1, human URAT1 h-V26T (Homo sapiens, UniProt Q96S37, V26T).
T1 construct: expressed in transfected cells; host or cells: HEK-293T
Nature of the experiment: URAT1 activity assay, h-V26T. Format: cell-based. Particulars: TM1 point mutant, read-out: Verinurad affinity (IC50). The text has this: (§1) Human URAT1 (GenBank BC053348.1, Homo sapiens SLC22A12), rat URAT1 (NCBI NM_001034943.1, Rattus norvegicus Slc22a12) and human OAT4 (NCBI NM_018484.2, Homo sapiens SLC22A11) genes were purchased from Origene Technologies, Inc. and subcloned into pCMV6/neo using NotI. Where indicated, controls transfections used pCMV6/neo. Mutants were produced by site-directed mutagenesis using the QuikChange Lightning Multi Site-Directed Mutagenesis Kit (Agilent Technologies). […] Mutagenic primer sequences are provided in ref. [15] and mutagenic primer sequences for previously unreported mutants shown in Supplementary Table 1. All constructs used in this study were untagged. Human OAT1 was purchased from Fisher Scientific (catalog # MHS1010–7508183 in pSPORT6, NCBI NM_153276.2, Homo sapiens SLC22A6).
(§2) HEK-293T cells were maintained in DMEM/high glucose/L-glutamine/HEPES supplemented with 1 mM sodium pyruvate (Life Technologies) and 10% FBS (PAA Laboratories) at 37 °C in 5% CO2. […]
(§3) URAT1 and OAT4 activity assays were performed in assay buffer consisting of 25 mM MES pH 5.5 (from a 1 M MES solution [Sigma] adjusted to pH 5.5 with sodium hydroxide), 125 mM sodium gluconate, 4.8 mM potassium gluconate, 1.2 mM monobasic potassium phosphate, 1.2 mM magnesium sulfate, 1.3 mM calcium gluconate and 5.6 mM glucose. […] Each treatment was measured in triplicate.

For the next experiment, the target named is T2, human URAT1 h-L31V (Homo sapiens, UniProt Q96S37, L31V).
T2 construct: expressed in transfected cells; host or cells: HEK-293T
Kind of experiment: URAT1 activity assay, h-L31V. Format: cell-based. Particulars: TM1 point mutant, read-out: Verinurad affinity (IC50).
Text: as §1, §2, §3

Another experiment has as its target T3, rat URAT1 r-V25M (Rattus norvegicus, UniProt Q3ZAV1, V25M).
T3 construct: expressed in transfected cells; host or cells: HEK-293T
Kind of experiment: URAT1 activity assay, r-V25M. Type of experiment: cell-based.
Text: as §1, §2, §3

A further experiment deals with T4, human URAT1-F449Y (Homo sapiens, UniProt Q96S37, F449Y).
T4 construct: expressed in transfected cells; host or cells: HEK-293T
Nature of the experiment: URAT1 binding assay with 3H-verinurad, h-F449Y membranes. As for the experimental part:
The plates were then subjected to scintillation counting. All samples were assayed in triplicate.

A further experiment deals with healthy human volunteers. Nature of the experiment: Verinurad study in humans (sUA and FEUA after a single dose). Particulars: single 40 mg dose. Type of experiment: in vivo. As for the experimental part: The study was conducted in accordance with Good Clinical Practice and the Declaration of Helsinki and with independent ethics committee (Welwyn Clinical Pharmacology Ethics Committee, Hatfield, UK) approval. Informed consent was obtained from all subjects before participating in the study. […] Urine samples were collected from 0 to 6 hours, 6 to 12 hours and 12 to 24 hours post dosing to measure the urinary excretion of uric acid and creatinine. FEUA was calculated using equation 1:1 FEUA=([urineuricacid]×[serumcreatinine])/([serumuricacid]×[urinecreatinine]) To determine time-weighted average plasma verinurad concentrations (TWA), plasma verinurad levels were first measured from serial plasma collections.

In experiment [1] the target is T5, human URAT1 (Homo sapiens, UniProt Q96S37).
T5 sequence (Q96S37 1-553): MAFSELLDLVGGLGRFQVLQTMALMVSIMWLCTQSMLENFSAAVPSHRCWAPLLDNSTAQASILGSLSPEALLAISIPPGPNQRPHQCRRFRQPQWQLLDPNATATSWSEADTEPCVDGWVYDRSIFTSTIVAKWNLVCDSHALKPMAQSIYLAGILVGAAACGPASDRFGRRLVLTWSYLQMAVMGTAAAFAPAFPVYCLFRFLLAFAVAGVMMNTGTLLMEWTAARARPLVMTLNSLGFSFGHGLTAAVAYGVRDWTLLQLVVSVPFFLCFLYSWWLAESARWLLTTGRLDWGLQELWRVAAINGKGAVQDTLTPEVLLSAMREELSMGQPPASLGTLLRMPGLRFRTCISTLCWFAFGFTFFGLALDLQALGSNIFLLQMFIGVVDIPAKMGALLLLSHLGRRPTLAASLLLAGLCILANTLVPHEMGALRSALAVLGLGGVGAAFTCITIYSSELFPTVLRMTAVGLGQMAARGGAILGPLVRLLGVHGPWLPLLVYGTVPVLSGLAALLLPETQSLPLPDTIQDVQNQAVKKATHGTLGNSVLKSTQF
Kind of experiment: URAT1 activity assay (14C-uric acid transport), human URAT1. Also on record: host or cells: HEK-293T. Format: cell-based. The procedure: HEK-293T cells were maintained in DMEM/high glucose/L-glutamine/HEPES supplemented with 1 mM sodium pyruvate (Life Technologies) and 10% FBS (PAA Laboratories) at 37 °C in 5% CO2. To express URAT1, OAT4 or OAT1, plasmids were reverse transfected into HEK-293T cells. DNA (10 µg) was mixed with 30 µl of DreamFect Gold (Boca Scientific) in 2 ml OptiMem (Life Technologies). After 20 minutes, 18 ml of media containing 2 × 10^7 cells in suspension was added and mixed, and 200 µl per well were plated onto white clear-bottomed poly-D-lysine coated 96-well plates (BD Biosciences). The cells were assayed the following day.
URAT1 and OAT4 activity assays were performed in assay buffer consisting of 25 mM MES pH 5.5 (from a 1 M MES solution [Sigma] adjusted to pH 5.5 with sodium hydroxide), 125 mM sodium gluconate, 4.8 mM potassium gluconate, 1.2 mM monobasic potassium phosphate, 1.2 mM magnesium sulfate, 1.3 mM calcium gluconate and 5.6 mM glucose. URAT1 inhibitors were serially diluted into assay buffer and added to the cells for 5 minutes prior to addition of substrate. URAT1-expressing cells were incubated with 100 µM ^14C-uric acid for 10 minutes and OAT4-expressing cells were incubated with 20 µM carboxyfluorescein (Life Technologies, Inc.) for 5 minutes. Cells were then washed three times in 25 mM MES pH 5.5/125 mM sodium gluconate, and solubilized in Ultima Gold (Perkin Elmer) prior to liquid scintillation counting. Each treatment was measured in triplicate.

Experiment [2] addresses T5, human URAT1. Kind of experiment: URAT1 binding assay with 3H-verinurad, human URAT1 membranes.
Procedure: Membranes were prepared from cells transfected on the previous day with URAT1 expression constructs. Cells (5–10 × 10^8) were harvested in 1 ml ice-cold binding buffer (25 mM HEPES pH 7.3, 125 mM sodium gluconate) containing complete, EDTA-free protease inhibitor cocktail (Sigma). Cells were lysed with 100 strokes in a 2 ml dounce homogenizer using a tight-fitting “B” stem. Lysates were transferred to 1.5 mL Eppendorf tubes and centrifuged at 250 rcf for 5 minutes at 2 °C, and supernatants were transferred to fresh tubes and centrifuged again at 18,000 rcf for 20 minutes at 2 °C. The pellets (membrane fractions) were resuspended in 1 ml of ice-cold binding buffer containing protease inhibitors and frozen at −80 °C. Protein was measured using the Bio-Rad protein assay dye reagent concentrate.
Samples were then rapidly filtered through 25 mm glass fiber/1.2 µM PES 96-well filter plates (Corning FiltrEX 3510), and washed once with 200 µl ice-cold binding buffer. The plates were then subjected to scintillation counting. All samples were assayed in triplicate.
GraphPad Prism software was used for non-linear regression and statistical analyses. […] For kinetic measurements (K m and B max values), the “one site – specific binding” equation was used, after subtracting transport or binding measurements from control transfected cells. Statistical significance was assessed using Student’s unpaired t-tests.

T3 sequence (Q3ZAV1 whole entry V25M): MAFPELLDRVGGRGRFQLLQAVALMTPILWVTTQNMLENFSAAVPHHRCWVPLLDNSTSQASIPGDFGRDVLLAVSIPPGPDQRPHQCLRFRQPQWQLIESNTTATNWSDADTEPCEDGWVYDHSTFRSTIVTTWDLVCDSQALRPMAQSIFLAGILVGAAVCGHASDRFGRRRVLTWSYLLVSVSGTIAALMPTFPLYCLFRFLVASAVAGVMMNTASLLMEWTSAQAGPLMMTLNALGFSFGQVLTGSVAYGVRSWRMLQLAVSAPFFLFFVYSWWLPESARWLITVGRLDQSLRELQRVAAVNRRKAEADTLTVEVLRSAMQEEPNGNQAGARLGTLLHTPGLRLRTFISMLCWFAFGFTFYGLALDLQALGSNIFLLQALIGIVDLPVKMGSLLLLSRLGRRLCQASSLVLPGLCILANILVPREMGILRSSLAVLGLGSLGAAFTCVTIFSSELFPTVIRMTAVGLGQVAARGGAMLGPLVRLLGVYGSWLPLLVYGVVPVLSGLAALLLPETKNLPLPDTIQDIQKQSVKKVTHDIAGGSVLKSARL
T4 sequence (Q96S37 whole entry F449Y): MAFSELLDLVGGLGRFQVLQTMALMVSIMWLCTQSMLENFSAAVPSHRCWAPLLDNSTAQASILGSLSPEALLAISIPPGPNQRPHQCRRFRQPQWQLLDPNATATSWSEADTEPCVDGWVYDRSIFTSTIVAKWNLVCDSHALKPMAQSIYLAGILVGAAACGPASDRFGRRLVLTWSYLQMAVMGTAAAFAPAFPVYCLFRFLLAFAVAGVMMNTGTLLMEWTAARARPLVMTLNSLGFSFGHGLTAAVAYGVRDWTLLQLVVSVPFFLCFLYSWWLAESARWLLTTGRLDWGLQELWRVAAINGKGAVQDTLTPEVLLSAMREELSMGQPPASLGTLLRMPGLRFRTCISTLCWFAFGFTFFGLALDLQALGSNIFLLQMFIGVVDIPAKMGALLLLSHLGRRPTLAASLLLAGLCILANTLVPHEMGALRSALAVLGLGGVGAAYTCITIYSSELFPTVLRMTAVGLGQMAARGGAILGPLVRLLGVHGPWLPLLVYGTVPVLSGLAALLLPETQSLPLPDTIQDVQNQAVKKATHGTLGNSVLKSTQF
T2 sequence (Q96S37 whole entry L31V): as the sequence (Q96S37 whole entry F449Y) above, with L31V, Y449F counted along it
T1 sequence (Q96S37 whole entry V26T): as the sequence (Q96S37 whole entry F449Y) above, with V26T, Y449F counted along it

What is called IC50 is the concentration that gives 50% inhibition. The Ki is a measure of affinity in units of concentration, obtained from inhibition or displacement. Regarding `CC(C)(Sc1ccncc1-c1ccc(C#N)c2ccccc12)C(=O)O` [Verinurad, 2-((3-(4-cyanonaphthalen-1-yl)pyrindin-4-yl)thio)-2-methylpropanoic acid], the concentration for half-maximal inhibition (IC50) stood at 14 ± 1.5 nM on human URAT1 h-V26T; 31 ± 10 nM at human URAT1 h-L31V; 18000 ± 3200 nM on rat URAT1 r-V25M (r-V25M, TM1 point mutant, read-out: Verinurad affinity (IC50)); 5.9 nM on human URAT1-F449Y (h-F449Y membranes, read-out: IC50, inhibition of 3H-verinurad binding to h-F449Y); 25 ± 3.6 nM at human URAT1 [1] (human URAT1 wild type in HEK-293T, 100 µM 14C-uric acid, pH 5.5, read-out: IC50, inhibition of transport activity); 25 nM at human URAT1 [1] (human URAT1 wild type, read-out: IC50, inhibition of transport activity of human URAT1). Also, on human URAT1 [2], the IC50 worked out at 7.8 nM. Besides, the “fold increase in affinity” value on rat URAT1 r-V25M (r-V25M vs rat URAT1) was 2.3 fold. Further, on human URAT1-F449Y (h-F449Y vs human URAT1), the “fold reduced potency at h-F449Y compared to wild type human URAT1, binding assay” value was “the same affinity”. Besides, the “time sUA is maintained below pretreatment levels” value with healthy human volunteers stood at 24 h. For the same molecule, the EC50 in the experiment on healthy human volunteers (healthy human volunteers, time-weighted average plasma concentration, read-out: half-maximal effective concentration in plasma for increase in FEUA) is 22 nM. At human URAT1 [1] (URAT1 vs other transporters), the “fold potency for URAT1 compared to other transporters” value is “greater than 100 fold”. The same molecule displayed a Ki on human URAT1 [2] of 6.9 nM. Further, the “mode of inhibition of 3H-verinurad binding” value on human URAT1 [2] (human URAT1 membranes) was “competitive inhibition”.

The record behind these values is article PMC5429603, “Discovery and characterization of verinurad, a potent and specific inhibitor of URAT1 for the treatment of hyperuricemia and gout” (Scientific Reports, 2017).
